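At the GI50, growth is halved. At the TGI there is no net growth.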
Columns and labels:
Experiment in all cases: growth of human tumour cells (NCI), 384-well format
[1] = test system: SF-268 CNS
[2] = test system: MDA-MB-435 melanoma
[3] = test system: SK-MEL-28 melanoma
[4] = test system: NCI-H322M lung
[5] = test system: KM12 colon
[6] = test system: SF-295 CNS
[7] = test system: BT-549 breast
[8] = test system: TK-10 renal
[9] = test system: NCI-H226 lung
[10] = test system: OVCAR-5 ovarian
[11] = test system: EKVX NSCLC
[12] = test system: HS 578T breast
[13] = test system: OVCAR-3 ovarian
[14] = test system: U251 glioblastoma
[15] = test system: SN12C renal
[16] = test system: CCRF-CEM leukemia
[17] = test system: A549 NSCLC
[18] = test system: HOP-62 NSCLC
[19] = test system: T-47D breast
[20] = test system: RXF 393 renal
[21] = test system: A498 renal
[22] = test system: NCI/ADR-RES ovarian
[23] = test system: HCC-2998 colon
[24] = test system: HT29 colon
[25] = test system: M14 melanoma
[26] = test system: NCI-H460 NSCLC
[27] = test system: HOP-92 NSCLC
[28] = test system: MDA-MB-231 breast
[29] = test system: SF-539 CNS
[30] = test system: NCI-H23 lung
[31] = test system: HL-60(TB) leukemia
[32] = test system: SW-620 colon
[33] = test system: NCI-H522 lung
[34] = test system: UACC-257 melanoma
[35] = test system: OVCAR-4 ovarian
[36] = test system: SK-OV-3 ovarian
[37] = test system: UACC-62 melanoma
[38] = test system: MDA-MB-468 breast
[39] = test system: ACHN renal
[40] = test system: CAKI-1 renal
[41] = test system: COLO 205 colon
[42] = test system: MALME-3M melanoma
[43] = test system: SK-MEL-2 melanoma
[44] = test system: SR leukemia
[45] = test system: SNB-19 CNS
[46] = test system: HCT-15 colon
[47] = test system: PC-3 prostate
[48] = test system: SK-MEL-5 melanoma
[49] = test system: 786-0 renal
[50] = test system: RPMI-8226 leukemia
[51] = test system: SNB-75 CNS
[52] = test system: DU-145 prostate
[53] = test system: MCF7 breast
[54] = test system: OVCAR-8 ovarian
[55] = test system: MOLT-4 leukemia
[56] = test system: IGROV1 ovarian

Q: `CN(C)CCNC(=O)c1cccc2cc3ccccc3nc12` was tested. Which GI50 [1] did it give?
A: The GI50 was 1150 nM.

Q: And the TGI [1]?
A: The TGI was 2470 nM.

Q: What about the GI50 [2] of the same compound?
A: Its GI50 is 1640 nM.

Q: And the TGI [2]?
A: Its TGI is 3230 nM.

Q: And the GI50 [3]?
A: The GI50 was 1620 nM.

Q: And the TGI [3]?
A: Its TGI is 3010 nM.

Q: What about the GI50 [4] of the same compound?
A: The GI50 was 1740 nM.

Q: What about the TGI [4] of the same compound?
A: The TGI was 3530 nM.

Q: And the GI50 [5]?
A: The GI50 was 862 nM.

Q: And the TGI [5]?
A: Its TGI is 2440 nM.

Q: And the GI50 [6]?
A: The GI50 was 974 nM.

Q: And the TGI [6]?
A: Its TGI is 2380 nM.

Q: What about the GI50 [7] of the same compound?
A: Its GI50 is 532 nM.

Q: What about the TGI [7] of the same compound?
A: Its TGI is 1680 nM.

Q: And the GI50 [8]?
A: Its GI50 is 1250 nM.

Q: And the TGI [8]?
A: The TGI was 2950 nM.

Q: And the GI50 [9]?
A: The GI50 was 898 nM.

Q: What about the TGI [9] of the same compound?
A: Its TGI is 2440 nM.

Q: What about the GI50 [10] of the same compound?
A: Its GI50 is 1440 nM.

Q: What about the TGI [10] of the same compound?
A: Its TGI is 3690 nM.

Q: And the GI50 [11]?
A: The GI50 was 1740 nM.

Q: What about the TGI [11] of the same compound?
A: Its TGI is 3670 nM.

Q: What about the GI50 [12] of the same compound?
A: Its GI50 is 287 nM.

Q: And the TGI [12]?
A: The TGI was 883 nM.

Q: And the GI50 [13]?
A: Its GI50 is 1340 nM.

Q: What about the TGI [13] of the same compound?
A: Its TGI is 2810 nM.

Q: What about the GI50 [14] of the same compound?
A: Its GI50 is 741 nM.

Q: What about the TGI [14] of the same compound?
A: The TGI was 2680 nM.

Q: What about the GI50 [15] of the same compound?
A: The GI50 was 1260 nM.

Q: What about the TGI [15] of the same compound?
A: The TGI was 2740 nM.

Q: What about the GI50 [16] of the same compound?
A: Its GI50 is 246 nM.

Q: And the TGI [16]?
A: Its TGI is 673 nM.

Q: What about the GI50 [17] of the same compound?
A: Its GI50 is 619 nM.

Q: What about the TGI [17] of the same compound?
A: Its TGI is 1900 nM.

Q: What about the GI50 [18] of the same compound?
A: The GI50 was 494 nM.

Q: And the TGI [18]?
A: Its TGI is 1850 nM.

Q: And the GI50 [19]?
A: The GI50 was 2050 nM.

Q: And the TGI [19]?
A: Its TGI is 4090 nM.

Q: What about the GI50 [20] of the same compound?
A: Its GI50 is 1120 nM.

Q: What about the TGI [20] of the same compound?
A: Its TGI is 2360 nM.

Q: And the GI50 [21]?
A: The GI50 was 539 nM.

Q: And the TGI [21]?
A: Its TGI is 2000 nM.

Q: And the GI50 [22]?
A: The GI50 was 876 nM.

Q: What about the TGI [22] of the same compound?
A: Its TGI is 2270 nM.

Q: What about the GI50 [23] of the same compound?
A: The GI50 was 1460 nM.

Q: What about the TGI [23] of the same compound?
A: The TGI was 2860 nM.

Q: And the GI50 [24]?
A: Its GI50 is 996 nM.

Q: And the TGI [24]?
A: The TGI was 2210 nM.

Q: And the GI50 [25]?
A: Its GI50 is 1140 nM.

Q: And the TGI [25]?
A: The TGI was 2380 nM.

Q: What about the GI50 [26] of the same compound?
A: Its GI50 is 375 nM.

Q: And the TGI [26]?
A: The TGI was 1250 nM.

Q: What about the GI50 [27] of the same compound?
A: Its GI50 is 688 nM.

Q: And the TGI [27]?
A: The TGI was 2150 nM.

Q: What about the GI50 [28] of the same compound?
A: Its GI50 is 958 nM.

Q: And the TGI [28]?
A: Its TGI is 2220 nM.

Q: What about the GI50 [29] of the same compound?
A: The GI50 was 449 nM.

Q: And the TGI [29]?
A: Its TGI is 1510 nM.

Q: What about the GI50 [30] of the same compound?
A: The GI50 was 1260 nM.

Q: And the TGI [30]?
A: Its TGI is 2570 nM.

Q: What about the GI50 [31] of the same compound?
A: The GI50 was 252 nM.

Q: And the TGI [31]?
A: The TGI was 462 nM.

Q: And the GI50 [32]?
A: The GI50 was 718 nM.

Q: And the TGI [32]?
A: Its TGI is 1990 nM.

Q: What about the GI50 [33] of the same compound?
A: The GI50 was 1240 nM.

Q: What about the TGI [33] of the same compound?
A: Its TGI is 2510 nM.

Q: And the GI50 [34]?
A: The GI50 was 1650 nM.

Q: And the TGI [34]?
A: The TGI was 3050 nM.

Q: And the GI50 [35]?
A: Its GI50 is 1790 nM.

Q: What about the TGI [35] of the same compound?
A: The TGI was 3610 nM.

Q: What about the GI50 [36] of the same compound?
A: The GI50 was 1200 nM.

Q: What about the TGI [36] of the same compound?
A: The TGI was 3290 nM.

Q: And the GI50 [37]?
A: Its GI50 is 1000 nM.

Q: And the TGI [37]?
A: Its TGI is 2200 nM.

Q: And the GI50 [38]?
A: The GI50 was 411 nM.

Q: And the TGI [38]?
A: Its TGI is 791 nM.

Q: And the GI50 [39]?
A: The GI50 was 961 nM.

Q: What about the TGI [39] of the same compound?
A: The TGI was 2280 nM.

Q: And the GI50 [40]?
A: The GI50 was 1020 nM.

Q: And the TGI [40]?
A: Its TGI is 2490 nM.

Q: What about the GI50 [41] of the same compound?
A: The GI50 was 336 nM.

Q: And the TGI [41]?
A: The TGI was 651 nM.

Q: And the GI50 [42]?
A: Its GI50 is 932 nM.

Q: And the TGI [42]?
A: The TGI was 2110 nM.

Q: And the GI50 [43]?
A: Its GI50 is 3280 nM.

Q: What about the TGI [43] of the same compound?
A: Its TGI is 4780 nM.

Q: What about the GI50 [44] of the same compound?
A: The GI50 was 198 nM.

Q: What about the TGI [44] of the same compound?
A: Its TGI is 349 nM.

Q: What about the GI50 [45] of the same compound?
A: The GI50 was 784 nM.

Q: What about the TGI [45] of the same compound?
A: Its TGI is 2690 nM.

Q: What about the GI50 [46] of the same compound?
A: The GI50 was 628 nM.

Q: And the TGI [46]?
A: The TGI was 2020 nM.

Q: And the GI50 [47]?
A: Its GI50 is 1460 nM.

Q: And the TGI [47]?
A: Its TGI is 3290 nM.

Q: What about the GI50 [48] of the same compound?
A: Its GI50 is 1180 nM.

Q: And the TGI [48]?
A: Its TGI is 2420 nM.

Q: And the GI50 [49]?
A: Its GI50 is 1070 nM.

Q: And the TGI [49]?
A: Its TGI is 3040 nM.

Q: What about the GI50 [50] of the same compound?
A: The GI50 was 506 nM.

Q: What about the TGI [50] of the same compound?
A: Its TGI is 1490 nM.

Q: What about the GI50 [51] of the same compound?
A: Its GI50 is 806 nM.

Q: And the TGI [51]?
A: Its TGI is 2130 nM.

Q: And the GI50 [52]?
A: Its GI50 is 1520 nM.

Q: And the TGI [52]?
A: Its TGI is 3120 nM.

Q: What about the GI50 [53] of the same compound?
A: Its GI50 is 1120 nM.

Q: What about the TGI [53] of the same compound?
A: The TGI was 4170 nM.

Q: What about the GI50 [54] of the same compound?
A: Its GI50 is 611 nM.

Q: What about the TGI [54] of the same compound?
A: The TGI was 1840 nM.

Q: What about the GI50 [55] of the same compound?
A: The GI50 was 169 nM.

Q: And the TGI [55]?
A: The TGI was 310 nM.

Q: And the GI50 [56]?
A: Its GI50 is 1140 nM.

Q: What about the TGI [56] of the same compound?
A: Its TGI is 2460 nM.

Reference: PubChem BioAssay (NCI)
